Data on 38 compounds can be found in patent publication US10065941B2, “Aminotriazine derivative and pharmaceutical composition comprising the same” (Shionogi & Co., Ltd., priority 2013, dated 2018).

SMILES strings stand for the structures.

human P2X3 receptor, sequence (P56373 whole entry): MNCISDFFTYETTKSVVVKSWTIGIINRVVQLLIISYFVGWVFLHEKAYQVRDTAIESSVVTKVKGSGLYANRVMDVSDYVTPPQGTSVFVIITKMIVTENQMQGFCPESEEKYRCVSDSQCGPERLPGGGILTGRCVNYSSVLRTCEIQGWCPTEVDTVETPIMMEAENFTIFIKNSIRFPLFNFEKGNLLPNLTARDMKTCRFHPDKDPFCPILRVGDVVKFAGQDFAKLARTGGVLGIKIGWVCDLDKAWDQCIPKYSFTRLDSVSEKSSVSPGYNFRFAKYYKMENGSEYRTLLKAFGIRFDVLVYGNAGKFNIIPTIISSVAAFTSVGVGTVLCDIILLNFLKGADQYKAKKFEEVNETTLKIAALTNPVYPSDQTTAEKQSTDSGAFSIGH

The test deals with human P2X3 receptor (Homo sapiens (Human), UniProt P56373). Kind of test: Evaluation of human P2X3 receptor inhibitory activity (Test Example 1). In kind it is cell-based. To be noted: C6BU-1 cell transfected with human P2X3 receptor gene, FLIPR 384. In outline:
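FLIPR calcium read-out: signal taken as peak fluorescence after ATP addition divided by starting fluorescence, and IC50 calculated from it. Compound added 5 min before 150 nM ATP solution (pre-dispense stock) to Fluo-3-AM-loaded C6BU-1 cells stably transfected with human P2X3; HEPES buffer pH 7.5 with probenecid.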
In general, IC50 refers to the midpoint of a concentration-inhibition curve. A high value points to weaker potency in that assay. In turn, `Cc1nccnc1Oc1ccc(/N=c2\[nH]c(=O)n(C[C@H](C)C(=O)O)c(=O)n2Cc2ccc(Cl)cc2)cc1` [Compound R-237] gave an IC50 of 9 nM. The value for `COC(=O)Cn1c(=O)[nH]/c(=N\c2ccc(Oc3ccccn3)cc2)n(Cc2ccc(Cl)cc2)c1=O` [Compound R-238, 1-(4-chlorobenzyl)-3-(methoxycarbonylmethyl)-6-[4-(2-pyridyloxy)phenylimino]-1,3,5-triazinane-2,4-dione] was 7 nM.

In turn, `O=C(O)Cn1c(=O)[nH]/c(=N\c2ccc(Oc3ccccn3)cc2)n(Cc2ccc(Cl)cc2)c1=O` [Compound R-239, 1-(4-chlorobenzyl)-3-(hydroxylcarbonylmethyl)-6-[4-(2-pyridyloxy)phenylimino]-1,3,5-triazinane-2,4-dione] returned an IC50 of 399 nM. Turning to `NC(=O)Cn1c(=O)[nH]/c(=N\c2ccc(Oc3ccccn3)cc2)n(Cc2ccc(Cl)cc2)c1=O` [Compound R-240, 1-(4-chlorobenzyl)-3-(carbamoylmethyl)-6-[4-(2-pyridyloxy)phenylimino]-1,3,5-triazinane-2,4-dione], the IC50 came to 11 nM. The value for `CNC(=O)Cn1c(=O)[nH]/c(=N\c2ccc(Oc3ccccn3)cc2)n(Cc2ccc(Cl)cc2)c1=O` [Compound R-241] was 9 nM; that for `O=C(Cn1c(=O)[nH]/c(=N\c2ccc(Oc3ccccn3)cc2)n(Cc2ccc(Cl)cc2)c1=O)NCCO` [Compound R-242] was 5 nM.

`O=C(Cn1c(=O)[nH]/c(=N\c2ccc(Oc3ccccn3)cc2)n(Cc2ccc(Cl)cc2)c1=O)NCC(F)(F)F` [Compound R-243] gave a 50% inhibitory concentration (IC50) of 4 nM.

`CC(CO)(CO)Cn1c(=O)[nH]/c(=N\c2ccc(Oc3ccccn3)cc2)n(Cc2ccc(Cl)cc2)c1=O` [Compound R-244] showed an IC50 of 4 nM.

`CC1(C)OCC(Cn2c(=O)[nH]/c(=N\c3ccc(Oc4ccccn4)cc3)n(Cc3ccc(Cl)cc3)c2=O)CO1` [Compound R-245] returned an IC50 of 4 nM. The value for `C[C@@H](Cn1c(=O)[nH]/c(=N\c2ccc(Oc3cnc(C#N)nc3)cc2)n(Cc2ccc(Cl)cc2)c1=O)C(=O)O` [Compound R-246] was 6 nM. The value for `CC1(C)OC[C@@H](Cn2c(=O)[nH]/c(=N\c3ccc(Oc4ccccn4)cc3)n(Cc3ccc(Cl)cc3)c2=O)O1` [Compound R-247] was 5 nM.

In turn, `O=c1[nH]/c(=N\c2ccc(Oc3ccccn3)cc2)n(Cc2ccc(Cl)cc2)c(=O)n1CCCOC1CCCCO1` (centres unmarked) [Compound R-248] showed a half-inhibitory concentration (IC50) of 5 nM. Compound `C[C@@H](C(=O)O)[C@H](C)n1c(=O)[nH]/c(=N\c2ccc(Oc3cnc(C#N)nc3)cc2)n(Cc2ccc(Cl)cc2)c1=O` [Compound R-249] showed an IC50 of 6 nM. The compound `O=c1[nH]/c(=N\c2ccc(Oc3ccccn3)cc2)n(Cc2ccc(Cl)cc2)c(=O)n1C[C@@H](O)CO` [Compound R-250] had an IC50 of 9 nM.

Consider `O=c1[nH]/c(=N\c2ccc(Oc3ccccn3)cc2)n(Cc2ccc(Cl)cc2)c(=O)n1CCCO` [Compound R-251, 1-(4-chlorobenzyl)-3-(3-hydroxypropyl)-6-[4-(2-pyridyloxy)phenylimino]-1,3,5-triazinane-2,4-dione], for which it took 5 nM to reach half-maximal inhibition (IC50).

Regarding `C=C(CO)Cn1c(=O)[nH]/c(=N\c2ccc(Oc3ccccn3)cc2)n(Cc2ccc(Cl)cc2)c1=O` [Compound R-254, 1-(4-chlorobenzyl)-3-(2-hydroxymethyl-2-propenyl)-6-[4-(2-pyridyloxy)phenylimino]-1,3,5-triazinane-2,4-dione], inhibition was half-maximal at 3 nM (IC50).

`O=c1[nH]/c(=N\c2ccc(Oc3ccccn3)cc2)n(Cc2ccc(Cl)cc2)c(=O)n1CC(O)(CO)CO` [Compound R-255, 1-(4-chlorobenzyl)-3-(2-hydroxymethyl-2,3-dihydroxypropyl)-6-[4-(2-pyridyloxy)phenylimino]-1,3,5-triazinane-2,4-dione]: inhibition was half-maximal at 5 nM (IC50). The value for `NC(=O)NC(=O)Cn1c(=O)[nH]/c(=N\c2ccc(Oc3ccccn3)cc2)n(Cc2ccc(Cl)cc2)c1=O` [Compound R-256] was 2 nM; that for `O=c1[nH]/c(=N\c2ccc(Oc3ccccn3)cc2)n(Cc2ccc(Cl)cc2)c(=O)n1CCO` [Compound R-257, 1-(4-chlorobenzyl)-3-(2-hydroxyethyl)-6-[4-(2-pyridyloxy)phenylimino]-1,3,5-triazinane-2,4-dione] was 10 nM; that for `O=C(O)CCn1c(=O)[nH]/c(=N\c2ccc(Oc3cccc(F)n3)cc2)n(Cc2ccc(CF)cc2)c1=O` [Compound R-275] was 23 nM. In turn, `O=C(O)CCn1c(=O)[nH]/c(=N\c2ccc(Oc3ncccc3F)cc2)n(Cc2ccc(CF)cc2)c1=O` [Compound R-276] came in with an IC50 of 42 nM.

With `Cc1ccc(Cn2c(=O)n(CCCC(=O)O)c(=O)[nH]/c2=N\c2ccc(Oc3ncccc3F)cc2)cc1` [Compound R-277], the midpoint of inhibition, the IC50, lay at 14 nM.

For the compound `Cc1ccc(Cn2c(=O)n(CCCC(=O)O)c(=O)[nH]/c2=N\c2ccc(Oc3ccc(F)cn3)cc2)cc1` [Compound R-278], the half-maximal inhibitory concentration (IC50) came to 15 nM.

As for `Cc1ccc(Cn2c(=O)n(CCCC(=O)O)c(=O)[nH]/c2=N\c2ccc(Oc3cccc(F)n3)cc2)cc1` [Compound R-279], the IC50 was determined as 7 nM. The value for `Cc1ccc(Cn2c(=O)n(CCC(=O)O)c(=O)[nH]/c2=N\c2ccc(Oc3ccccn3)c(F)c2)cc1` [Compound R-280] was 9 nM; that for `O=C(O)CCn1c(=O)[nH]/c(=N\c2ccc(Oc3ccccn3)c(F)c2)n(Cc2ccc(Cl)cc2)c1=O` [Compound R-281] was 7 nM. Take `Cc1ccc(Cn2c(=O)n(CCC(=O)O)c(=O)[nH]/c2=N\c2ccc(Oc3ccccn3)c(C)c2)cc1` [Compound R-282]: 23 nM corresponded to half-maximal inhibition (IC50). Consider `Cc1cc(/N=c2\[nH]c(=O)n(CCC(=O)O)c(=O)n2Cc2ccc(Cl)cc2)ccc1Oc1ccccn1` [Compound R-283], for which the IC50 is 28 nM. The value for `O=C(O)CCn1c(=O)[nH]/c(=N\c2ccc(Oc3ccc(Cl)cn3)cc2)n(Cc2ccc(Cl)cc2)c1=O` [Compound R-284] was 5 nM; that for `Cc1ccc(Cn2c(=O)n(CCC(=O)O)c(=O)[nH]/c2=N\c2ccc(Oc3ccc(Cl)cn3)cc2)cc1` [Compound R-285] was 6 nM; that for `COC(=O)CCn1c(=O)[nH]/c(=N\c2ccc(Oc3cccc(F)n3)cc2)n(Cc2ccc(CF)cc2)c1=O` [Compound R-286] was 6 nM. Compound `COC(=O)CCn1c(=O)[nH]/c(=N\c2ccc(Oc3ccc(Cl)cn3)cc2)n(Cc2ccc(Cl)cc2)c1=O` [Compound R-287] yielded a half-maximal inhibitory concentration (IC50) of 6 nM. The value for `COC(=O)CCn1c(=O)[nH]/c(=N\c2ccc(Oc3ncccc3F)cc2)n(Cc2ccc(CF)cc2)c1=O` [Compound R-288] was 12 nM; that for `COC(=O)CCn1c(=O)[nH]/c(=N\c2ccc(Oc3ccc(Cl)cn3)cc2)n(Cc2ccc(C)cc2)c1=O` [Compound R-289] was 5 nM; that for `COC(=O)CCn1c(=O)[nH]/c(=N\c2ccc(Oc3ccccn3)c(C)c2)n(Cc2ccc(C)cc2)c1=O` [Compound R-290] was 6 nM. The value for `COC(=O)CCn1c(=O)[nH]/c(=N\c2ccc(Oc3ccccn3)c(C)c2)n(Cc2ccc(Cl)cc2)c1=O` [Compound R-291] was 6 nM. In the case of `COC(=O)CCn1c(=O)[nH]/c(=N\c2ccc(Oc3ccccn3)c(F)c2)n(Cc2ccc(C)cc2)c1=O` [Compound R-292], the IC50 is 4 nM.

In turn, `COC(=O)CCn1c(=O)[nH]/c(=N\c2ccc(Oc3ccccn3)c(F)c2)n(Cc2ccc(Cl)cc2)c1=O` [Compound R-293] displayed a half-inhibitory concentration (IC50) of 4 nM.
